Patent US12516044B2, “Heterocyclic compounds as immunomodulators” (Incyte Corporation, priority 2015, dated 2026)

What follows are compounds tested against T1, PD-1/PD-L1 protein/protein interaction (Homo sapiens, UniProt Q9NZQ7) (assay: PD-1/PD-L1 Homogeneous Time-Resolved Fluorescence (HTRF) Binding Assay). Conditions: recombinant human PD-L1 (19-238) His-tag and human PD-1 (25-167) Fc tag; 25° C., PBS pH 7.4.
T1 construct: Recombinant human PD-L1 protein (19-238) with a His-tag at the C-terminus; purchased AcroBiosystems PD1-H5229 (PD-L1-His); PD1-H5257 (PD-1-Fc)
Method: Example A. PD-1/PD-L1 Homogeneous Time-Resolved Fluorescence (HTRF) Binding Assay
The assays were conducted in a standard black 384-well polystyrene plate with a final volume of 20 μL. Inhibitors were first serially diluted in DMSO and then added to the plate wells before the addition of other reaction components. The final concentration of DMSO in the assay was 1%. The assays were carried out at 25° C. in the PBS buffer (pH 7.4) with 0.05% Tween-20 and 0.1% BSA. Recombinant human PD-L1 protein (19-238) with a His-tag at the C-terminus was purchased from AcroBiosystems (PD1-H5229). Recombinant human PD-1 protein (25-167) with Fc tag at the C-terminus was also purchased from AcroBiosystems (PD1-H5257). PD-L1 and PD-1 proteins were diluted in the assay buffer and 10 μL was added to the plate well. Plates were centrifuged and proteins were preincubated with inhibitors for 40 minutes. The incubation was followed by the addition of […] of HTRF detection buffer supplemented with Europium cryptate-labeled anti-human IgG (PerkinElmer-AD0212) specific for Fc and anti-His antibody conjugated to SureLight®-Allophycocyanin (APC, PerkinElmer-AD0059H). After centrifugation, the plate was incubated at 25° C. for 60 min. before reading on a PHERAstar FS plate reader (665 nm/620 nm ratio). Final concentrations in the assay were […] PD1, 10 nM PD-L1, 1 nM europium anti-human IgG and 20 nM anti-His-Allophycocyanin. IC50 determination was performed by fitting the curve of percent control activity versus the log of the inhibitor concentration using the GraphPad Prism 5.0 software.

T1 sequence (Q9NZQ7 19-238): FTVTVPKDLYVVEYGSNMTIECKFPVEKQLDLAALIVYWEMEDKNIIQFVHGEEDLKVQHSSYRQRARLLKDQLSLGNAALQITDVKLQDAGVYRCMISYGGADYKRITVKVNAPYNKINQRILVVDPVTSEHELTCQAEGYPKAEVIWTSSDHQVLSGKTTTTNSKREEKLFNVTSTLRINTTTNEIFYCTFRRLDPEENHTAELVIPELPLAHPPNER

SMILES	IC50
Cc1c(NC(=O)c2ccc(CNCCO)cn2)cccc1-c1ccccc1 [Example 2, 5-{[(2-hydroxyethyl)amino]methyl}-N-(2-methylbiphenyl-3-yl)pyridine-2-carboxamide]	10 to 100 nM
Cc1c(NC(=O)c2ncc(CNCCO)cc2F)cccc1-c1ccccc1 [Example 17, 3-fluoro-5-{[(2-hydroxyethyl)amino]methyl}-N-(2-methylbiphenyl-3-yl)pyridine-2-carboxamide]	10 to 100 nM
Cc1c(NC(=O)c2ccc(CN3CCCC[C@H]3C(=O)O)cn2)ccnc1-c1ccccc1 [Example 42, (S)-1-((6-(3-methyl-2-phenylpyridin-4-ylcarbamoyl)pyridin-3-yl)methyl)piperidine-2-carboxylic Acid]	> 1000 nM
Cc1c(NC(=O)c2ncc(CNCCO)cn2)cccc1-c1ccccc1 [Example 6, 5-{[(2-hydroxyethyl)amino]methyl}-N-(2-methylbiphenyl-3-yl)pyrimidine-2-carboxamide]	10 to 100 nM
Cn1ncc2c(-c3cccc(NC(=O)c4ccc(CNCCO)cn4)c3C#N)cccc21 [Example 49, N-[2-cyano-3-(1-methyl-1H-indazol-4-yl)phenyl]-5-{[(2-hydroxyethyl)amino]methyl}pyridine-2-carboxamide]	≤ 10 nM
Cc1c(NC(=O)c2ccc(CNCCO)nn2)cccc1-c1ccccc1 [Example 12, 6-{[(2-hydroxyethyl)amino]methyl}-N-(2-methylbiphenyl-3-yl)pyridazine-3-carboxamide]	10 to 100 nM
N#Cc1c(NC(=O)c2ccc(CN3CCCC[C@H]3C(=O)O)cn2)cccc1-c1ccccc1 [Example 7, (2S)-1-[(6-{[(2-cyanobiphenyl-3-yl)amino]carbonyl}pyridin-3-yl)methyl]piperidine-2-carboxylic Acid]	10 to 100 nM
N#Cc1c(NC(=O)c2ccc(CNCCO)cn2)cccc1-c1ccc2c(c1)OCC2 [Example 47, N-[2-cyano-3-(2,3-dihydro-1-benzofuran-6-yl)phenyl]-5-{[(2-hydroxyethyl)amino]methyl}pyridine-2-carboxamide]	10 to 100 nM
Cc1cc(C(=O)Nc2cccc(-c3ccccc3)c2C)ncc1CN1CCCC[C@H]1C(=O)O [Example 32, (2S)-1-[(4-methyl-6-{[(2-methylbiphenyl-3-yl)amino]carbonyl}pyridin-3-yl)methyl]piperidine-2-carboxylic Acid]	≤ 10 nM
COc1cc(C(=O)Nc2cccc(-c3ccccc3)c2C)ncc1CNCCO [Example 35, 5-{[(2-hydroxyethyl)amino]methyl}-4-methoxy-N-(2-methylbiphenyl-3-yl)pyridine-2-carboxamide]	≤ 10 nM
CC(C)(C)OC(=O)N1CCC=C(c2cccc(NC(=O)c3ccc(CNCCO)cn3)c2C#N)C1 [Example 40, tert-butyl 5-(2-cyano-3-{[(5-{[(2-hydroxyethyl)amino]methyl}pyridin-2-yl)carbonyl]amino}phenyl)-3,6-dihydropyridine-1(2H)-carboxylate]	100 to 1000 nM
Cc1c(NC(=O)c2ccc(CNCCO)cn2)cc(F)cc1-c1ccc2c(c1)OCCO2 [Example 45, N-[3-(2,3-dihydro-1,4-benzodioxin-6-yl)-5-fluoro-2-methylphenyl]-5-{[(2-hydroxyethyl)amino]methyl}pyridine-2-carboxamide]	≤ 10 nM
Cc1c(NC(=O)c2ccnc(OCc3cccnc3)n2)cccc1-c1ccccc1 [Example 30, N-(2-methylbiphenyl-3-yl)-2-(pyridin-3-ylmethoxy)pyrimidine-4-carboxamide]	100 to 1000 nM
N#Cc1c(NC(=O)c2ccc(CNCCO)cn2)cccc1-c1ccc2c(c1)OCCO2 [Example 10, N-(2-cyano-3-(2,3-dihydrobenzo[b][1,4]dioxin-6-yl)phenyl)-5-((2-hydroxyethylamino)methyl)picolinamide]	≤ 10 nM
Cc1c(NC(=O)c2ccc(CNCCO)cn2)ccnc1-c1ccccc1 [Example 43, 5-{[(2-hydroxyethyl)amino]methyl}-N-(3-methyl-2-phenylpyridin-4-yl)pyridine-2-carboxamide]	100 to 1000 nM
